Marks after values point to notes of the source that are not given here.
Tests used:
healthy participants [1] = assay: Incidental visual memory ERP paradigm; format: in vivo, human; conditions: for Mean amplitude over the parietal cortex, Incidental Memory task, Novel trials / Mean amplitude over the parietal cortex, Incidental Memory task, Repeat trials: mean (SD)
Method: (§1) Following the cognitive battery, an electrophysiology recording was set up. Visual and auditory ERPs were recorded using a 128-channel Geodesic sensor net (EGI, Inc., Eugene, OR; [37, 38]). The electrophysiological recording was sampled at 250 Hz with filters set at 0.1–100 Hz. During data collection, all electrodes were referenced to vertex (Cz). The recording session lasted approximately 30 min.
(§2) A passive incidental visual memory paradigm (120 trials, 8 min; [38]) was used to evaluate changes in basic memory processes. Participants were asked to view a slide show of novel color photographs depicting complex natural scenes (different sets of images were used at pre-dose vs. post-dose administration test sessions). A small subset (n = 10) of the stimuli was presented repeatedly (× 5 each) throughout the session; the rest (n = 50) were shown once. To encourage attention to the stimulus sequence, 20 attention probes (a yellow smiley face) were presented throughout the test session and required a button press response. The task duration was approximately 7 min.
(§3) ERP processing and Analysis: Single-trial ERPs were derived by extracting a 100-ms pre-stimulus baseline and a 900 ms post-stimulus interval. The trials were screened for ocular and motor artifacts using automated procedures with standard threshold settings (NetStation 4.4, EGI, Inc) and verified using manual review. Data for electrodes characterized by consistent artifacts were replaced using the spherical spline interpolation algorithm. If more than 15 electrodes within a trial were noisy, the entire trial was discarded. Remaining artifact-free trials were averaged separately for each condition (standard vs. oddball; novel vs. repeated images), re-referenced to an average reference, and baseline corrected. For individual participant’s data to be included in the analysis, each condition average had to have a minimum of 10 artifact-free trials.
(§4) Statistical analysis focused on a priori selected electrode clusters corresponding to frontal, central, and parietal midline locations (Fz, Cz, Pz in 10–20 notation), confirmed using spatial principal components analysis. Mean amplitudes were calculated within 250–400 ms (frontal P3a), 300–500 ms (parietal P300), and 500–800 ms (parietal P600) temporal windows. These a-priori selected windows were confirmed using temporal principal components analysis.
(§5) Analyses for the auditory and visual oddball ERPs focused on the parietal (P300) and frontal (P3a) responses to standard and target stimuli. Differences in the amplitude, latency, and scalp topography of the responses were examined. […] For the incidental memory paradigm, differences in the mean amplitude of the parietal P300/P600 responses to repeated vs. novel presentations. The amplitude of the parietal P300/P600 waveform measures stimulus recognition. A larger positive amplitude for repeated compared to novel images indicates spontaneous formation of a memory trace.
as §2, with “(Key & Dykens, 2014))” for “[38])”, “once. All stimuli were presented in random order for 1500 ms with a random interstimulus interval of 1300-1600 ms.” for “once.”, “minutes.” for “min.”

healthy participants [2] = assay: Visual oddball ERP task; format: in vivo, human; conditions: for Mean amplitude over the parietal cortex, Visual Oddball, Standard trials / Mean amplitude over the parietal cortex, Visual Oddball, Target trials: mean (SD)
Method: as §1
Auditory and visual oddball tasks were performed to assess attention in auditory and visual modalities. In the auditory task, a pair of two pure tones (single formant) at 1000 and 1500 Hz were the stimuli. In the visual task, the stimuli were a pair of letters (X & O). The assignment of stimuli to standard and target conditions (70% & 30% of the trials respectively), was counterbalanced across participants. Each participant was asked to press a different button using their preferred hand upon presentation of the standard and the target stimulus. On average, auditory and visual tasks lasted 6–7 min each.
as §3, §4, §5
Auditory and visual oddball tasks were performed to assess attention in auditory and visual modalities (Comerchero & Polich, 1999; Polich, 2007). In the auditory task, a pair of two pure tones (single formant) at 1000 and 1500 Hz were the stimuli. Tones were equated in duration (300 ms) and rise/decay times. Tones were presented at 75 dB SPL (measured at the ear) through a speaker positioned 1 meter in front of the participant. In the visual task, the stimuli were a pair of letters (X & O). All stimuli were presented in random order for 500 ms in the center of a computer monitor positioned 1 meter in front of the participant. For both auditory and visual tasks, 200 trials were presented with the inter-stimulus interval varying randomly between 1000-1300 ms to prevent habituation to stimulus onset. The assignment of stimuli to standard and target conditions (70% & 30% of the trials respectively), was counterbalanced across participants. […]

[3] = SAD study, 120mg, Pre-Drug, n = 5
[4] = VU319 120 mg, fasting, post-drug session
[5] = VU319 120 mg, fasting, pre-drug session
[6] = VU319 120 mg, fed, post-drug session
[7] = VU319 120 mg, fed, pre-drug session
[8] = SAD study, 120mg, Post-Drug, n = 5
[9] = SAD study, 240mg, Post-Drug, n = 5
[10] = VU319 120 mg, fasting, post-drug session, n = 9
[11] = VU319 120 mg, fasting, pre-drug session, n = 9
[12] = VU319 120 mg, fed, pre-drug session, n = 9

Cn1cc2c(-c3cc(F)c(CN4Cc5ncccc5C4=O)c(F)c3)cccc2n1 [VU319]
Incidental memory, novel vs repeated images (healthy participants [1]; 120 mg, fasted condition, either session, both p > 0.2): did not show a difference
Incidental memory parietal P300/P600 amplitude, repeated vs novel, effect size d (healthy participants [1]; 120 mg, fed condition, p = 0.018): 0.91
Incidental memory parietal P300/P600 amplitude, repeated vs novel, effect size d (healthy participants [1]; 400 mg, p = 0.098): 0.83
Incidental memory parietal P300/P600 amplitude, repeated vs novel, effect size d (healthy participants [1]; 600 mg, p = 0.09): 0.86
Incidental memory P300/P600 amplitude, repeated vs novel, higher two doses compared to placebo, effect size d (healthy participants [1]; 400 and 600 mg): > 0.8
Mean amplitude over the parietal cortex, Incidental Memory task, Novel trials (healthy participants [1]; SAD study, 60 mg, Post-Drug): 0.87 (1.92) µV
Mean amplitude over the parietal cortex, Incidental Memory task, Repeat trials (healthy participants [1]; SAD study, 60 mg, Post-Drug): 1.25 (1.02) µV
Mean amplitude over the parietal cortex, Incidental Memory task, Novel trials (healthy participants [1]; SAD study, 60 mg, Pre-Drug): 0.49 (2.16) µV
Mean amplitude over the parietal cortex, Incidental Memory task, Repeat trials (healthy participants [1]; SAD study, 60 mg, Pre-Drug): 0.77 (1.85) µV
Mean amplitude over the parietal cortex, Incidental Memory task, Novel trials (healthy participants [1]; SAD study, 120 mg, Post-Drug): 1.67 (2.01) µV
Mean amplitude over the parietal cortex, Incidental Memory task, Repeat trials (healthy participants [1]; SAD study, 120 mg, Post-Drug): 2.16 (1.69) µV
Mean amplitude over the parietal cortex, Incidental Memory task, Novel trials (healthy participants [1]; [3]): 2.3 (1.78)^# µV
Mean amplitude over the parietal cortex, Incidental Memory task, Repeat trials (healthy participants [1]; [3]): 2.66 (2.5)^# µV
Mean amplitude over the parietal cortex, Incidental Memory task, Novel trials (healthy participants [1]; SAD study, 240 mg, Post-Drug): 1.76 (1.4) µV
Mean amplitude over the parietal cortex, Incidental Memory task, Repeat trials (healthy participants [1]; SAD study, 240 mg, Post-Drug): 2.19 (1.37) µV
Mean amplitude over the parietal cortex, Incidental Memory task, Novel trials (healthy participants [1]; SAD study, 240 mg, Pre-Drug): 1.22 (1.44) µV
Mean amplitude over the parietal cortex, Incidental Memory task, Repeat trials (healthy participants [1]; SAD study, 240 mg, Pre-Drug): 2.14 (1.27) µV
Mean amplitude over the parietal cortex, Incidental Memory task, Novel trials (healthy participants [1]; SAD study, 400 mg, Post-Drug): 2.45 (1.79) µV
Mean amplitude over the parietal cortex, Incidental Memory task, Repeat trials (healthy participants [1]; SAD study, 400 mg, Post-Drug): 3.14 (2.3) µV
Mean amplitude over the parietal cortex, Incidental Memory task, Novel trials (healthy participants [1]; SAD study, 400 mg, Pre-Drug): 2.35 (1.07) µV
Mean amplitude over the parietal cortex, Incidental Memory task, Repeat trials (healthy participants [1]; SAD study, 400 mg, Pre-Drug): 1.91 (1.19) µV
Mean amplitude over the parietal cortex, Incidental Memory task, Novel trials (healthy participants [1]; SAD study, 600 mg, Post-Drug): 1.98 (0.97) µV
Mean amplitude over the parietal cortex, Incidental Memory task, Repeat trials (healthy participants [1]; SAD study, 600 mg, Post-Drug): 3.17 (1.37) µV
Mean amplitude over the parietal cortex, Incidental Memory task, Novel trials (healthy participants [1]; SAD study, 600 mg, Pre-Drug): 2.47 (1.3) µV
Mean amplitude over the parietal cortex, Incidental Memory task, Repeat trials (healthy participants [1]; SAD study, 600 mg, Pre-Drug): 2.74 (1.63) µV
Mean amplitude over the parietal cortex, Incidental Memory task, Novel trials (healthy participants [1]; [4]): 1.0 (1.39) µV
Mean amplitude over the parietal cortex, Incidental Memory task, Repeat trials (healthy participants [1]; [4]): 1.48 (1.3) µV
Mean amplitude over the parietal cortex, Incidental Memory task, Novel trials (healthy participants [1]; [5]): 1.34 (1.09) µV
Mean amplitude over the parietal cortex, Incidental Memory task, Repeat trials (healthy participants [1]; [5]): 1.46 (1.45) µV
Mean amplitude over the parietal cortex, Incidental Memory task, Novel trials (healthy participants [1]; [6]): 1.04 (1.81) µV
Mean amplitude over the parietal cortex, Incidental Memory task, Repeat trials (healthy participants [1]; [6]): 2.43 (1.59) µV
Mean amplitude over the parietal cortex, Incidental Memory task, Novel trials (healthy participants [1]; [7]): 1.0 (0.95) µV
Mean amplitude over the parietal cortex, Incidental Memory task, Repeat trials (healthy participants [1]; [7]): 0.88 (2.27) µV
Visual oddball P300 amplitude, targets vs standards (healthy participants [2]; 120 mg, fasted condition): no difference
Visual oddball P300 amplitude, targets vs standards, effect size d (healthy participants [2]; 120 mg, fed, post-dose session, p = 0.061): 0.73
Visual oddball P300 amplitude, targets vs standards, effect size d (healthy participants [2]; 120 mg, fed, pre-dose session, p = 0.039): 0.82
Visual oddball parietal amplitude, target vs standard, post- vs pre-dose, effect size d (healthy participants [2]; 400 mg, p = 0.05): 1.28
Visual oddball parietal amplitude, target vs standard, post- vs pre-dose effect (healthy participants [2]; 600 mg, t < 1): not found
Mean amplitude over the parietal cortex, Visual Oddball, Standard trials (healthy participants [2]; SAD study, 60 mg, Post-Drug): -0.66 (1.57) µV
Mean amplitude over the parietal cortex, Visual Oddball, Target trials (healthy participants [2]; SAD study, 60 mg, Post-Drug): 1.36 (0.91) µV
Mean amplitude over the parietal cortex, Visual Oddball, Standard trials (healthy participants [2]; SAD study, 60 mg, Pre-Drug): -0.13 (1.23) µV
Mean amplitude over the parietal cortex, Visual Oddball, Target trials (healthy participants [2]; SAD study, 60 mg, Pre-Drug): 1.19 (1.9) µV
Mean amplitude over the parietal cortex, Visual Oddball, Standard trials (healthy participants [2]; [8]): 0.01 (1.05)^# µV
Mean amplitude over the parietal cortex, Visual Oddball, Target trials (healthy participants [2]; [8]): 1.5 (1.26)^# µV
Mean amplitude over the parietal cortex, Visual Oddball, Standard trials (healthy participants [2]; [3]): 0.99 (1.12)^# µV
Mean amplitude over the parietal cortex, Visual Oddball, Target trials (healthy participants [2]; [3]): 2.71 (1.58)^# µV
Mean amplitude over the parietal cortex, Visual Oddball, Standard trials (healthy participants [2]; [9]): 1.02 (1.44)^# µV
Mean amplitude over the parietal cortex, Visual Oddball, Target trials (healthy participants [2]; [9]): 2.2 (2.28)^# µV
Mean amplitude over the parietal cortex, Visual Oddball, Standard trials (healthy participants [2]; SAD study, 240 mg, Pre-Drug): 0.32 (1.04) µV
Mean amplitude over the parietal cortex, Visual Oddball, Target trials (healthy participants [2]; SAD study, 240 mg, Pre-Drug): 1.93 (1.88) µV
Mean amplitude over the parietal cortex, Visual Oddball, Standard trials (healthy participants [2]; SAD study, 400 mg, Post-Drug): 1.48 (0.73) µV
Mean amplitude over the parietal cortex, Visual Oddball, Target trials (healthy participants [2]; SAD study, 400 mg, Post-Drug): 2.7 (1.92) µV
Mean amplitude over the parietal cortex, Visual Oddball, Standard trials (healthy participants [2]; SAD study, 400 mg, Pre-Drug): 1.04 (1.03) µV
Mean amplitude over the parietal cortex, Visual Oddball, Target trials (healthy participants [2]; SAD study, 400 mg, Pre-Drug): 1.75 (1.5) µV
Mean amplitude over the parietal cortex, Visual Oddball, Standard trials (healthy participants [2]; SAD study, 600 mg, Post-Drug): 1.47 (1.1) µV
Mean amplitude over the parietal cortex, Visual Oddball, Target trials (healthy participants [2]; SAD study, 600 mg, Post-Drug): 3.1 (2.23) µV
Mean amplitude over the parietal cortex, Visual Oddball, Standard trials (healthy participants [2]; SAD study, 600 mg, Pre-Drug): 1.46 (2.51) µV
Mean amplitude over the parietal cortex, Visual Oddball, Target trials (healthy participants [2]; SAD study, 600 mg, Pre-Drug): 3.46 (2.31) µV
Mean amplitude over the parietal cortex, Visual Oddball, Standard trials (healthy participants [2]; [10]): -0.16 (1.73) µV
Mean amplitude over the parietal cortex, Visual Oddball, Target trials (healthy participants [2]; [10]): 0.72 (3.1) µV
Mean amplitude over the parietal cortex, Visual Oddball, Standard trials (healthy participants [2]; [11]): -0.16 (1.28) µV
Mean amplitude over the parietal cortex, Visual Oddball, Target trials (healthy participants [2]; [11]): 0.71 (1.6) µV
Mean amplitude over the parietal cortex, Visual Oddball, Standard trials (healthy participants [2]; VU319 120 mg, fed, post-drug session, n = 9): 0.25 (0.62) µV
Mean amplitude over the parietal cortex, Visual Oddball, Standard trials (healthy participants [2]; [12]): -0.29 (1.17) µV
Mean amplitude over the parietal cortex, Visual Oddball, Target trials (healthy participants [2]; [12]): 0.91 (1.49) µV

— PMC12211128, “Safety, tolerability, pharmacokinetic and pharmacodynamic effects of the muscarinic M1 positive allosteric modulator VU0467319 for Alzheimer’s disease: a single ascending-dose study in healthy participants” (Alzheimer's Research & Therapy, 2025)
